Test results: patent publication US20160228380A1, “IMPREGNANATION OF OXYGEN CARRIER COMPOUNDS INTO CARRIER MATERIALS PROVIDING COMPOSITIONS AND METHODS FOR THE TREATMENT OF WOUNDS AND BURNS” (VIRGINIA COMMONWEALTH UNIVERSITY, priority 2013, published 2016)

Assay: TGA of PFD weight loss from coated aerogel, uncoated aerogel and pure PFD
Type: physicochemical
Settings: held at 37° C. for 60 minutes, aerogel-free basis

loss of available PFD: 100%
SMILES: FC1(F)C(F)(F)C(F)(F)C2(F)C(F)(F)C(F)(F)C(F)(F)C(F)(F)C2(F)C1(F)F (stereo not shown) [pure PFD, perfluorodecalin]
